Measurements reported in PubChem BioAssay AID330 (DTP/NCI, 2004).
Values joined by “and” are separate entries in the source; they are usually repeats but may differ in a detail not shown here. Equal entries are not always repeated. Toxic doses and inconclusive results are not listed. How the source made its calls: active means survival T/C of 150% or more; inactive means T/C below 125% in these data.

Test system: P388 leukemia ip, CD2F1 mice, survival T/C
Assay: NCI In Vivo Anticancer Drug Screen. Data for tumor model P388 Leukemia (intraperitoneal) in CD2F1 (CDF1) mice
Conditions: endpoint: median survival time, higher = longer survival
Summary of the method: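 Mice carrying the transplanted tumor received test compound or vehicle. Survival was recorded in each group, and the value is the treated-group measurement divided by that of the vehicle-treated control group.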

[1] = dose: 25.0 mg/kg/injection, schedule: Q01DX009 (ip), vehicle: Klucel (hydroxypropylcellulose) (HPC)
[2] = dose: 50.0 mg/kg/injection, schedule: Q01DX009 (ip), vehicle: Klucel (hydroxypropylcellulose) (HPC)
[3] = dose: 100.0 mg/kg/injection, schedule: Q01DX009 (ip), vehicle: Klucel (hydroxypropylcellulose) (HPC)
[4] = dose: 25.0 mg/kg/injection, schedule: Q01DX009 (ip), vehicle: saline with Tween-80
[5] = dose: 50.0 mg/kg/injection, schedule: Q01DX009 (ip), vehicle: saline with Tween-80
[6] = dose: 100.0 mg/kg/injection, schedule: Q01DX009 (ip), vehicle: saline with Tween-80
[7] = dose: 200.0 mg/kg/injection, schedule: Q01DX009 (ip), vehicle: saline with Tween-80
[8] = dose: 100.0 mg/kg/injection, schedule: Q04DX002 (ip), vehicle: saline with Tween-80
[9] = dose: 200.0 mg/kg/injection, schedule: Q04DX002 (ip), vehicle: saline with Tween-80
[10] = dose: 12.5 mg/kg/injection, schedule: Q01DX005 (ip), vehicle: Klucel (hydroxypropylcellulose) (HPC)
[11] = dose: 25.0 mg/kg/injection, schedule: Q01DX005 (ip), vehicle: Klucel (hydroxypropylcellulose) (HPC)
[12] = dose: 50.0 mg/kg/injection, schedule: Q01DX005 (ip), vehicle: Klucel (hydroxypropylcellulose) (HPC)
[13] = dose: 60.0 mg/kg/injection, schedule: Q01DX005 (ip), vehicle: saline with Tween-80
[14] = dose: 120.0 mg/kg/injection, schedule: Q01DX005 (ip), vehicle: saline with Tween-80

Measured: T/C

CN(C)CCSC(=O)N1c2ccccc2C(C)(C)c2ccccc21
inactive: dose: 50.0 mg/kg/injection, schedule: Q01DX009 (ip), vehicle: saline 102 % of control | dose: 100.0 mg/kg/injection, schedule: Q01DX009 (ip), vehicle: saline 103 % of control

CCOC(=O)/C=C/C(=O)NNC(=O)OC(C)(C)C
inactive: dose: 12.5 mg/kg/injection, schedule: Q01DX009 (ip), vehicle: other 99 % of control | dose: 25.0 mg/kg/injection, schedule: Q01DX009 (ip), vehicle: other 93 % of control | dose: 50.0 mg/kg/injection, schedule: Q01DX009 (ip), vehicle: other 101 % of control | dose: 100.0 mg/kg/injection, schedule: Q01DX009 (ip), vehicle: other 119 % of control | dose: 200.0 mg/kg/injection, schedule: Q01DX009 (ip), vehicle: other 108 % of control

CCCCCOC(=O)c1ccccc1N
inactive: dose: 12.5 mg/kg/injection, schedule: Q01DX009 (ip), vehicle: Klucel (hydroxypropylcellulose) (HPC) 105 % of control | [1] 104 % of control | [2] 102 % of control and 103 % of control | [3] 91 % of control

COc1cc2c(cc1OC)C(CC1CCN3CCCCC3C1)NCC2 (configuration not stated)
inactive: dose: 87.5 mg/kg/injection, schedule: Q04DX003 (ip), vehicle: saline 103 % of control

COc1ccc(OC)c(NC(=O)Oc2cccc(NC(C)=O)c2)c1
inactive: [4] 105 % of control | [5] 106 % of control | [6] 104 % of control | [7] 107 % of control | dose: 400.0 mg/kg/injection, schedule: Q01DX009 (ip), vehicle: saline with Tween-80 104 % of control

CS/C(N)=N/NC(=O)CCC(=O)Nc1cc(C)ccc1C
inactive: [8] 102 % of control | [9] 101 % of control | dose: 400.0 mg/kg/injection, schedule: Q04DX002 (ip), vehicle: saline with Tween-80 90 % of control

N=C(/C(=C/c1cccc2ccccc12)c1ccccc1)c1ccccc1
inactive: [2] 98 % of control | [3] 104 % of control | dose: 200.0 mg/kg/injection, schedule: Q01DX009 (ip), vehicle: Klucel (hydroxypropylcellulose) (HPC) 108 % of control

CSc1ccc(N2C(=O)CCSC2=S)cc1Cl
inactive: dose: 50.0 mg/kg/injection, schedule: Q01DX009 (ip), vehicle: suspension in saline 108 % of control | dose: 100.0 mg/kg/injection, schedule: Q01DX009 (ip), vehicle: suspension in saline 110 % of control | dose: 200.0 mg/kg/injection, schedule: Q01DX009 (ip), vehicle: suspension in saline 114 % of control

O=C1CCCCCC2=NC12 (configuration not stated)
inactive: dose: 6.25 mg/kg/injection, schedule: Q01DX005 (ip), vehicle: Klucel (hydroxypropylcellulose) (HPC) 105 % of control and 90 % of control | [10] 103 % of control and 109 % of control | [11] 113 % of control and 118 % of control | [12] 116 % of control

Nc1nc(=S)c2n[nH]nc2[nH]1
inactive: dose: 11.0 mg/kg/injection, schedule: Q01DX009 (ip), vehicle: saline with Tween-80 101 % of control and 105 % of control | dose: 12.5 mg/kg/injection, schedule: Q01DX009 (ip), vehicle: saline with Tween-80 104 % of control | dose: 16.5 mg/kg/injection, schedule: Q01DX009 (ip), vehicle: saline with Tween-80 98 % of control and 103 % of control | [4] 103 % of control and 91 % of control | dose: 37.5 mg/kg/injection, schedule: Q01DX009 (ip), vehicle: saline with Tween-80 98 % of control and 101 % of control

CCn1cnc2c(=S)nc(N)[nH]c21
inactive: [1] 105 % of control

C=C(C)C(=O)OC1c2c(C)coc2C(=O)C2CCCC(C)C21C (configuration not stated)
inactive: [4] 101 % of control | [5] 98 % of control | [6] 102 % of control | [7] 96 % of control

O=C(O)CS(=O)(=O)N1CCOCC1
inactive: [12] 102 % of control | dose: 100.0 mg/kg/injection, schedule: Q01DX005 (ip), vehicle: Klucel (hydroxypropylcellulose) (HPC) 94 % of control

COc1ccc(Cc2cc3c(cc2O)OCO3)cc1
inactive: dose: 2.5 mg/kg/injection, schedule: Q01DX009 (ip), vehicle: saline with Tween-80 99 % of control | dose: 5.0 mg/kg/injection, schedule: Q01DX009 (ip), vehicle: saline with Tween-80 101 % of control | dose: 10.0 mg/kg/injection, schedule: Q01DX009 (ip), vehicle: saline with Tween-80 101 % of control | dose: 15.0 mg/kg/injection, schedule: Q01DX005 (ip), vehicle: saline with Tween-80 107 % of control | dose: 31.0 mg/kg/injection, schedule: Q01DX005 (ip), vehicle: saline with Tween-80 102 % of control | dose: 62.5 mg/kg/injection, schedule: Q01DX005 (ip), vehicle: saline with Tween-80 106 % of control | dose: 125.0 mg/kg/injection, schedule: Q01DX005 (ip), vehicle: saline with Tween-80 100 % of control | dose: 250.0 mg/kg/injection, schedule: Q01DX005 (ip), vehicle: saline with Tween-80 102 % of control

COc1ccc(C2CC(C)(O)Oc3cc4c(cc32)OCO4)cc1 (configuration not stated)
inactive: dose: 60.0 mg/kg/injection, schedule: Q01DX005 (ip), vehicle: Klucel (hydroxypropylcellulose) (HPC) 97 % of control | dose: 120.0 mg/kg/injection, schedule: Q01DX005 (ip), vehicle: Klucel (hydroxypropylcellulose) (HPC) 89 % of control

O=C1CCCN1
inactive: dose: 100.0 mg/kg/injection, schedule: Q04DX003 (ip), vehicle: saline 100 % of control | dose: 200.0 mg/kg/injection, schedule: Q04DX003 (ip), vehicle: saline 100 % of control | dose: 400.0 mg/kg/injection, schedule: Q04DX003 (ip), vehicle: saline 109 % of control

CCCCCCCCCCCCCCCc1cc(O)c(CC=C(C)C)c(=O)o1 (tested in a mixture with another compound)
inactive: dose: 82.5 mg/kg/injection, schedule: Q01DX005 (ip), vehicle: Klucel (hydroxypropylcellulose) (HPC) 98 % of control | dose: 165.0 mg/kg/injection, schedule: Q01DX005 (ip), vehicle: Klucel (hydroxypropylcellulose) (HPC) 97 % of control | dose: 330.0 mg/kg/injection, schedule: Q01DX005 (ip), vehicle: Klucel (hydroxypropylcellulose) (HPC) 105 % of control

COc1ccc2c(c1)CCC(c1nc3ccc(C)cc3[nH]c1=O)C2=O (configuration not stated)
inactive: [13] 103 % of control | [14] 108 % of control

COC(=O)/N=c1\cc(N2CC=CCC2)nc(N)n1O
inactive: [13] 94 % of control | [14] 94 % of control | dose: 240.0 mg/kg/injection, schedule: Q01DX005 (ip), vehicle: saline with Tween-80 91 % of control

Cc1ccc(NC(=O)CCC(=O)C(C)C(=O)c2ccccc2)c(C)c1 (configuration not stated)
inactive: dose: 50.0 mg/kg/injection, schedule: Q01DX005 (ip), vehicle: saline with Tween-80 99 % of control | dose: 100.0 mg/kg/injection, schedule: Q01DX005 (ip), vehicle: saline with Tween-80 97 % of control | dose: 200.0 mg/kg/injection, schedule: Q01DX005 (ip), vehicle: saline with Tween-80 97 % of control

CC1(Cl)C(c2ccccc2)=[N+]([O-])[N+]([O-])=C1c1ccccc1
inactive: [8] 112 % of control | [9] 112 % of control

CC(C)(C)/C=C/N=NNc1ccccn1
inactive: dose: 100.0 mg/kg/injection, schedule: Q01DX001 (ip), vehicle: Klucel (hydroxypropylcellulose) (HPC) 97 % of control | dose: 200.0 mg/kg/injection, schedule: Q01DX001 (ip), vehicle: Klucel (hydroxypropylcellulose) (HPC) 92 % of control | dose: 400.0 mg/kg/injection, schedule: Q01DX001 (ip), vehicle: Klucel (hydroxypropylcellulose) (HPC) 94 % of control

Cn1c2ncccc2c(=O)c2c(O)cc3c(c21)C=CC(C)(C)O3
inactive: [10] 100 % of control | [11] 102 % of control | [12] 101 % of control and 93 % of control

OCC1OC(n2cc(I)c3c2ncn2nnnc32)C(O)C1O (configuration not stated)
inactive: dose: 3.13 mg/kg/injection, schedule: Q01DX009 (ip), vehicle: water 99 % of control | dose: 6.25 mg/kg/injection, schedule: Q01DX009 (ip), vehicle: water 100 % of control | dose: 12.5 mg/kg/injection, schedule: Q01DX009 (ip), vehicle: water 97 % of control | dose: 25.0 mg/kg/injection, schedule: Q01DX009 (ip), vehicle: water 97 % of control | dose: 50.0 mg/kg/injection, schedule: Q01DX009 (ip), vehicle: water 89 % of control

CC1C(=O)C23CC1CCC2C12COC(=O)C1C(C)(C)C(=O)CC2OC3=O (configuration not stated)
inactive: dose: 50.0 mg/kg/injection, schedule: Q04DX002 (ip), vehicle: saline with Tween-80 105 % of control | [8] 93 % of control | [9] 94 % of control
